Molecules are shown by their SMILES. Where a name gives a salt, the structure may show the parent alone.

For the molecule `CCCCOC(=O)c1ccc2c(c1)ncn2-c1cccc(N2CCN(CCOCC)CC2)c1` (as salt: HCl) [Compound 1c, n-Butyl 1-(3-(4-(ethoxyethyl)-1-piperazinyl)-phenyl)-benzimidazole-5-carboxylate], the melting point (in general, the temperature, or range, at which the solid turns liquid) was 92 to 95 °C. With `CCOCCN1CCN(c2cccc(-n3cnc4cc(C(=O)OCC(C)C)ccc43)c2)CC1` (as salt: HCl) [Compound 1d, iso-Butyl 1-(3-(4-(ethoxyethyl)-1-piperazinyl)-phenyl)-benzimidazole-5-carboxylate] the figure was 154 to 160 °C.

In the case of `COCCOC(=O)c1ccc2c(c1)ncn2-c1cccc(N2CCN(CCOC)CC2)c1` (as salt: HCl) [Compound 1e, 2-Methoxyethyl 1-(3-(4-(methoxyethyl)-1-piperazinyl)-phenyl)-benzimidazole-5-carboxylate], the melting point fell in the range of 173 to 178 °C. For `COCCN1CCN(c2cccc(-n3cnc4cc(C(=O)OCCO)ccc43)c2)CC1` (as salt: HCl) [Compound 1f, 2-Hydroxyethyl 1-(3-(4-(methoxyethyl)-1-piperazinyl)-phenyl)-benzimidazole-5-carboxylate] the value was 159 to 162 °C; for `CCCCOC(=O)c1ccc2c(c1)ncn2-c1cccc(N2CCN(CCOC)CC2)c1` (as salt: HCl) [Compound 1g, n-Butyl 1-(3-(4-(methoxyethyl)-1-piperazinyl)-phenyl)-benzimidazole-5-carboxylate], 148 to 152 °C.

(Values after patent US20060241101A1, “Novel benzimidazole derivatives and pharmaceutical compositions comprising these compounds” (priority 2003, published 2006).)
